Patent publication US6962918B2, “Hexahydropyrazino[1'2';1,6]pyrido[3,4-b]indole-1,4-diones for the treatment of cardiovascular disorders and erectile dysfunction” (Lilly Icos LLC., priority 2000, dated 2005)

Columns and labels:
[1] = target: recombinant human PDE5 (Homo sapiens, UniProt O76074); assay: Inhibitory effect on cGMP-PDE (PDE5 IC50), one-step assay adapted from Wells et al.; format: biochemical; conditions: 0.15 μM 8-[H3]-cGMP, 30 minutes incubation, 2% DMSO
Protocol: The compounds of structural formula (I) were tested for an ability to inhibit PDE5. The ability of a compound to inhibit PDE5 activity is related to the IC50 value for the compound, i.e., the concentration of inhibitor required for 50% inhibition of enzyme activity. The IC50 value for compounds of structural formula (I) were determined using recombinant human PDE5.
(§1) cGMP-PDE activity of compounds of the present invention was measured using a one-step assay adapted from Wells et al., Biochim. Biophys. Acta, 384, 430 (1975). The reaction medium contained 50 mM Tris-HCl, pH 7.5, 5 mM magnesium acetate, 250 μg/ml 5′-Nucleotidase,1 mM ECTA, and 0.15 μM 8-[H^3]-cGMP. Unless otherwise indicated, the enzyme used was a human recombinant PDE5 (ICOS Corp., Bothell, Wash.).
(§2) Compounds of the invention were dissolved in DMSO finally present at 2% in the assay.

[2] = target: T1, PDE5 (bovine aorta) (Bos taurus, UniProt Q28156); assay: Inhibitory effect on cGMP-PDE (PDE5 IC50), bovine aorta enzyme; format: biochemical; conditions: enzyme marked (bovine aorta) in the cell
T1 construct: from tissue; host or cells: bovine aorta
Protocol: as §1, §2

Row | SMILES | IC50 [1] [nM] | IC50 [2] [nM] | melting point [°C]
1 | CC(C)C[C@H]1c2[nH]c3ccccc3c2C[C@H]2C(=O)N(C)CC(=O)N21 (racemic) [Example 19, (+−,cis)-6-Isobutyl-2-methyl-2,3,6,7,12,12a-hexa-hydropyrazino[1′2′:1,6]pyrido[3,4-b]indole-1,4-dione] | 4800 | – | –
2 | CN1CC(=O)N2[C@@H](C3CCCCC3)c3[nH]c4ccccc4c3C[C@H]2C1=O (racemic) [Example 20, (+−, cis)-6-Cyclohexyl-2-methyl-2,3,6,7,12,12a-hexa-hydropyrazino[1′2′:1,6]pyrido[3,4-b]indole,1,4-dione] | – | 230 | –
3 | CN1CC(=O)N2[C@@H](c3cc4ccccc4o3)c3[nH]c4ccccc4c3C[C@H]2C1=O [Example 1, (6R,12aS)-6-benzofuran-2-yl-2-methyl-2,3,6,7,12,12a-hexahydro-pyrazino [1′,2′:1,6]pyrido[3,4-b]indole-1,4-dione] | 130 | – | –
4 | CN1CC(=O)N2[C@H](c3cc4ccccc4o3)c3[nH]c4ccccc4c3C[C@H]2C1=O [Example 2] | 8730 | – | 195 to 198
5 | CN1CC(=O)N2[C@H](c3cc4ccccc4o3)c3[nH]c4ccccc4c3C[C@@H]2C1=O [Example 3, (6S,12aR)-6-benzofuran-2-yl-2-methyl-2,3,6,7,12,12a-hexahydropyrazino[1′,2′:1,6]-pyrido[3,4-b]indole-1,4-dione] | 16 | – | 265 to 268
6 | Cc1c([C@@H]2c3[nH]c4ccccc4c3C[C@@H]3C(=O)N(C)CC(=O)N23)sc2ccccc12 [Example 8] | 1 | – | –
7 | CN1CC(=O)N2[C@H](Cc3c([nH]c4ccccc34)[C@H]2COCc2ccccc2)C1=O [Example 16, (6S,12aR)-6-Benzyloxymethyl-2-methyl-2,3,6,7,12,12a-hexahydropyrazino[1′2′:1,6]pyrido-[3,4-b]indole-1,4-dione] | 1500 | – | 181 to 187
8 | CN1CC(=O)N2[C@H](Cc3c([nH]c4ccccc34)[C@H]2CO)C1=O [Example 17, (6S,12aR)-6-Hydroxymethyl-2-methyl-2,3,6,7,12,12a-hexahydropyrazino-[1′2′:1,6]pyrido[3,4-b]indole-1,4-dione] | 23000 | – | –
9 | CN1CC(=O)N2[C@@H](C3CC=CCC3)c3[nH]c4ccccc4c3C[C@H]2C1=O (stereo partly drawn) [Example 21, (+−, cis)-6-Cyclohex-3-enyl-2-methyl-2,3,6,7,12,12a-hexahydropyrazino[1′2′:1,6]pyrido[3,4-b]indole-1,4-dione] | 560 | – | –

Continued by falling IC50 [1], values first:

Row | IC50 [1] [nM] | IC50 [2] [nM] | melting point [°C] | SMILES
10 | 1570 | – | – | Cc1c([C@H]2c3[nH]c4ccccc4c3C[C@@H]3C(=O)N(C)CC(=O)N23)sc2ccccc12 [Example 7, (6R,12aR)-2-methyl-6-(3-methylbenzo[b]thiophen-2-yl)-2,3,6,7,12,12a-hexahydropyrazino[1′2′:1,6]-pyrido[3,4-b]indole-1,4-dione]
11 | 880 | – | – | CN1CC(=O)N2[C@@H](c3cc4ccccc4o3)c3[nH]c4ccccc4c3C[C@@H]2C1=O [Example 4]
12 | 333 | – | – | COC[C@@H]1c2[nH]c3ccccc3c2C[C@@H]2C(=O)N(C)CC(=O)N21 [Example 15]
13 | 195 | – | 180 to 185 | COCOC[C@@H]1c2[nH]c3ccccc3c2C[C@@H]2C(=O)N(C)CC(=O)N21 [Example 18, (6S,12aR)-Methoxymethoxymethyl-2-methyl-2,3,6,7,12,12a-hexahydropyrazino-[1′,2′:1,6]pyrido[3,4-b]indole-1,4-dione]
14 | 40 | – | – | Cc1c([C@@H]2c3[nH]c4ccccc4c3C[C@H]3C(=O)N(C)CC(=O)N23)sc2ccccc12 [Example 6]
15 | 25 | – | 230 to 234 | Cc1c([C@H]2c3[nH]c4ccccc4c3C[C@H]3C(=O)N(C)CC(=O)N23)sc2ccccc12 [Example 5, (6R,12aS)-2-methyl-6-(e-methyl-benzo[b]thiophen-2-yl)-2,3,6,7,12,12a-hexahydro-pyrazino[1′,2′:1,6]pyrido[3,4-b]indole-1,4-dione]
16 | 12 | – | – | CN1CC(=O)N2[C@H](c3cc4ccoc4s3)c3[nH]c4ccccc4c3C[C@@H]2C1=O [Example 9]
